Drawing on US9447114B2, “Thieno- and furo[2,3-d]pyrimidine-2,4[1H,3H]-dione derivatives” (Hydra Biosciences, Inc., priority 2014, dated 2016), this text covers IC50 for 14 compounds.

In the experiment the target is TRPC5 channel (Homo sapiens (Human), UniProt Q9UL62). In words: High throughput screening assay: intracellular Ca2+ rise, Fluo4 cell-based fluorescence. The following applies: HEK293/TREx cells inducibly expressing TRPC5, high-Ca2+ Ringer, 14 mM Ca2+ final, triplicate, 0.027-20 μM. From the text: The assay depended on detection of the rise in intracellular Ca2+ concentration ([Ca2+]i) following channel activation in cells inducibly expressing the TRPC5 channel. Ca2+ rise was quantified with the use of fluorescent Ca2+ indicators that were loaded into cells and thereafter indicated the [Ca2+]i Ca2+ influx followed activation of the TRPC5 channel. Compounds inhibiting the [Ca2+]i rise were considered hits for further investigation.
Sequence of TRPC5 channel (Q9UL62 whole entry): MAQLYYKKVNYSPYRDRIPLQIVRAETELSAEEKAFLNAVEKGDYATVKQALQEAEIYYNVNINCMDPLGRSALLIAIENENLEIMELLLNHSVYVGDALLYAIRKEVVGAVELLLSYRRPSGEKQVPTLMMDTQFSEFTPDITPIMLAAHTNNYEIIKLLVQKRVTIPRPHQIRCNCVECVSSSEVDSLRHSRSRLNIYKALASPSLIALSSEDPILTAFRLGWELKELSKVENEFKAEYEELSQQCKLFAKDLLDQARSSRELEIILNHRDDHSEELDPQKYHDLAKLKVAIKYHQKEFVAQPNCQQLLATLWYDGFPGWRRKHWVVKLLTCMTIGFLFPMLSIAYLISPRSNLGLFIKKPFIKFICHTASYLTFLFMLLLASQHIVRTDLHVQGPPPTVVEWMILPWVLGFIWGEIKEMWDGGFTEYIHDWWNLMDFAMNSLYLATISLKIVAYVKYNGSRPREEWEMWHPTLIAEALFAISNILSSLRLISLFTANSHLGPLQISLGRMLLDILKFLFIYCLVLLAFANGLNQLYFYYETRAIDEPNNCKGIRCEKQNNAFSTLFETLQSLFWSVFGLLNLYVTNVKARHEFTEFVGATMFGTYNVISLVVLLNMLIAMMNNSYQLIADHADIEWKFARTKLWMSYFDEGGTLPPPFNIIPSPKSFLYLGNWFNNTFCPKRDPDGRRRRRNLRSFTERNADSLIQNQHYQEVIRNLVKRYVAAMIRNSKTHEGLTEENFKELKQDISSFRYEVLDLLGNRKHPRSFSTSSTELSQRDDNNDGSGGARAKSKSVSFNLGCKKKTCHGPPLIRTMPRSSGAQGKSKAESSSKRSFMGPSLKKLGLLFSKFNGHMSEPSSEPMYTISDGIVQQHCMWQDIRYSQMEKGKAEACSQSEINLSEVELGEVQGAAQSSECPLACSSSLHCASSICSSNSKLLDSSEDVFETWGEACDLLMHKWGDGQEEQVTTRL
The commercially available HEK293/TREx line (Invitrogen) was stably transfected with a TRPC5 construct and screened by conventional calcium imaging to find clones with TRPC5 expression following stimulation with 1 μg/ml tetracycline. These cells were maintained in the growth medium recommended by the manufacturer supplemented with 100 μg/ml hygromycin to promote retention of the TRPC5 construct. After growing to near confluency, cells were plated at a density of ˜35,000 cells/well in 384 well CellBind plates (Corning) in the presence of 1 μg/ml tetracycline, and allowed to grow for 20-30 hrs. A nearly confluent monolayer resulted. Cells were then loaded with Ca2+ dye: Fura-2/AM or Fluo4/AM was added to the wells to a final concentration of 4 μM or 0.5 μM, respectively, and incubated for 80 min or 60 min, respectively, at room temperature. Supernatant was then removed from the cells by inverting plates with a sharp flick, and 25 μl Hank's Balanced Salt Solution (HBSS; 0.185 g/l D-glucose, 0.9767 g/l MgS04 (anhydrous), 0.4 g/l KCl, 0.06 g/l KH2PO4 (anhydrous), 0.35 g/l NaHCO3, 8.0 g/l NaCl, and 0.04788 g/l Na2HPO4 (anhydrous); pH 7.4) was then added to each well. Following ˜0.5 hour for recovery from loading, cells were assayed using the Hamamatsu FDSS 6000 system, which permitted illumination alternately at 340 nm and 380 nm for Fura-2 experiments, or at 485 nm for Fluo4 experiments. Frames were acquired at a rate of 0.2 Hz. During the assay, the plates were continuously vortexed, with pipette mixing of wells following addition of each reagent. For the screening assay, 26 μl of a diluted compound stock (at 50 μM) was added to each well for 2 minutes following the collection of a short (4 frame) baseline. 13 μl 62 mM high-Ca2+Ringer solution (4.17 ml of normal ringer (with 2 mM Ca2+) plus 5.83 ml of isotonic calcium ringer (105 mM Ca2+; in this ringer all sodium has been replaced with calcium)) was then added to each well, achieving a final concentration of 14 mM Ca2+ and 10 μM test compound. Data was collected for ˜3 minutes following addition of high Ca2+Ringer, where the fluorescent intensity (for Fluo4) and the F340/F380 ratio (for Fura-2) were proportional to the [Ca2+]i Negative controls consisted of HEK293/TREx TRPC5 cells exposed to high Ca2+ solution, but no compound. Positive control conditions consisted of addition of 2-APB, a promiscuous blocker of TRPC5 and other channels, to columns 23 and 24 of the plates, to a final concentration of 200 μM. These controls defined a screening window, and “hits” were defined as those compounds inhibiting the fluorescence response by at least 40%. IC50 values were determined for compounds defined as “hits.” The Fluo4 cell-based fluorescence assay was used to determine the intracellular Ca2+ concentration in the presence of varying drug concentration. Final concentrations of compounds tested were 20 μM, 6.667 μM, 2.222 μM, 0.741 μM, 0.247 μM, 0.082 μM, and 0.027 μM. Compounds were tested in triplicate at all concentrations. Standard software was used to fit IC50 curves.
Additionally or alternatively, efficacy can be represented as % inhibition in the presence (of a given concentration of compound) versus the absence of compound or in comparison to a control compound. For example, efficacy can be represented as % inhibition of ion flux in the presence versus the absence of compound.
As to `Cc1c(-c2ccc(F)c(F)c2)sc2c1c(=O)n(CCCO)c(=O)n2C` [Compound 15, 6-(3,4-difluorophenyl)-3-(3-hydroxypropyl)-1,5-dimethylthieno[2,3-d]pyrimidine-2,4(1H,3H)-dione], half-maximal inhibition (IC50) required 0.112 µM. Regarding `Cc1c(-c2ccc(Cl)c(Cl)c2)sc2c1c(=O)n(CCCO)c(=O)n2C` [Compound 5, 6-(3,4-dichlorophenyl)-3-(3-hydroxypropyl)-1,5-dimethylthieno[2,3-d]pyrimidine-2,4(1H,3H)-dione], the IC50 was under 0.027 µM.

With `Cc1c(-c2cncc(Cl)c2)sc2c1c(=O)n(CCCO)c(=O)n2C` [Compound 8, 6-(5-chloropyridin-3-yl)-3-(3-hydroxypropyl)-1,5-dimethylthieno[2,3-d]pyrimidine-2,4(1H,3H)-dione], the IC50 came out at 1.7 µM. `Cc1c(-c2ccc3ccccc3c2)sc2c1c(=O)n(CCCO)c(=O)n2C` [Compound 7, 3-(3-hydroxypropyl)-1,5-dimethyl-6-(naphthalen-2-yl)thieno[2,3-d]pyrimidine-2,4(1H,3H)-dione]: the 50% inhibitory concentration (IC50) came to 0.0349 µM. The same measure for `Cc1c(-c2ccccc2Cl)sc2c1c(=O)n(CCCO)c(=O)n2C` [Compound 16, 6-(2-chlorophenyl)-3-(3-hydroxypropyl)-1,5-dimethylthieno[2,3-d]pyrimidine-2,4(1H,3H)-dione]: 0.027 µM; for `CC(C)CC(O)c1c(-c2cccc(OC(F)(F)F)c2)sc2c1c(=O)n(CCCO)c(=O)n2C` (centres unmarked) [Compound 22, 5-(1-hydroxy-3-methylbutyl)-3-(3-hydroxypropyl)-1-methyl-6-(3-(trifluoromethoxy)phenyl) thieno[2,3-d]pyrimidine-2,4(1H,3H)-dione]: 0.369 µM; for `Cc1c(-c2cccc(Cl)c2)sc2c1c(=O)n(CCCO)c(=O)n2C` [Compound 19, 6-(3-chlorophenyl)-3-(3-hydroxypropyl)-1,5-dimethylthieno[2,3-d]pyrimidine-2,4(1H,3H)-dione]: 0.226 µM. Regarding `Cn1c(=O)n(CCCO)c(=O)c2c(C(O)c3ccc(Cl)cc3)c(-c3cccc(Cl)c3)sc21` (centres unmarked) [Compound 4, 6-(3-chlorophenyl)-5-((4-chlorophenyl) (hydroxy)methyl)-3-(3-hydroxypropyl)-1-methylthieno[2,3-d]pyrimidine-2,4(1H,3H)-dione], the IC50 turned out to be 0.055 µM. The same measure for `Cc1c(-c2cccc(OC(F)(F)F)c2)sc2c1c(=O)n(CCCO)c(=O)n2C` [Compound 14, 3-(3-hydroxypropyl)-1,5-dimethyl-6-(3-(trifluoromethoxy)phenyl)thieno[2,3-d]pyrimidine-2,4(1H,3H)-dione]: 0.0822 µM; for `Cc1c(-c2cccc(F)c2)sc2c1c(=O)n(CCCO)c(=O)n2C` [Compound 18, 6-(3-fluorophenyl)-3-(3-hydroxypropyl)-1,5-dimethylthieno[2,3-d]pyrimidine-2,4(1H,3H)-dione]: 0.027 µM.

The compound `O=c1c2c(Cc3ccc(Cl)cc3)c(-c3cccc(Cl)c3)oc2n(CCCO)c(=O)n1CCCO` [Compound 28, 5-(4-chlorobenzyl)-6-(3-chlorophenyl)-1,3-bis(3-hydroxypropyl)furo[2,3-d]pyrimidine-2,4(1H,3H)-dione] displayed an IC50 of 4.33 µM. The same measure for `Cn1c(=O)n(CCCO)c(=O)c2c(Cc3ccc(Cl)cc3)c(-c3cccc(Cl)c3)sc21` [Compound 23, 5-(4-chlorobenzyl)-6-(3-chlorophenyl)-3-(3-hydroxypropyl)-1-methylthieno[2,3-d]pyrimidine-2,4(1H,3H)-dione]: 0.027 µM; for `Cc1c(-c2ccccc2OC(F)(F)F)sc2c1c(=O)n(CCCO)c(=O)n2C` [Compound 13, 3-(3-hydroxypropyl)-1,5-dimethyl-6-(2-(trifluoromethoxy)phenyl)thieno[2,3-d]pyrimidine-2,4(1H,3H)-dione]: under 0.021 µM.

Regarding `CC(C)CCc1c(-c2cccc(OC(F)(F)F)c2)sc2c1c(=O)n(CCCO)c(=O)n2C` [Compound 3, 3-(3-hydroxypropyl)-5-isopentyl-1-methyl-6-(3-(trifluoromethoxy)phenyl)thieno[2,3-d]pyrimidine-2,4(1H,3H)-dione], it took 0.34 µM to reach half-maximal inhibition (IC50).
